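Five compound concentrations were applied to cells in 96-well plates for 48 hours; endpoints were derived by simple linear interpolation of the resulting dose-response curve. GI50 is the concentration that inhibits growth by half. Definition used: TGI = concentration required for complete inhibition of growth.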
Tests used:
Assay in all cases: NCI-60 cell line screen, 48 h
NCI-H226 lung = system: NCI-H226 lung
LOX IMVI melanoma = system: LOX IMVI melanoma
TK-10 renal = system: TK-10 renal
NCI-H460 lung = system: NCI-H460 lung
SF-268 CNS = system: SF-268 CNS
IGROV1 ovarian = system: IGROV1 ovarian
SNB-75 CNS = system: SNB-75 CNS
M14 melanoma = system: M14 melanoma
BT-549 breast = system: BT-549 breast
OVCAR-3 ovarian = system: OVCAR-3 ovarian
SF-295 CNS = system: SF-295 CNS
UACC-257 melanoma = system: UACC-257 melanoma
SR leukemia = system: SR leukemia
OVCAR-5 ovarian = system: OVCAR-5 ovarian
A549 NSCLC = system: A549 NSCLC
OVCAR-4 ovarian = system: OVCAR-4 ovarian
COLO 205 colon = system: COLO 205 colon
MCF7 breast = system: MCF7 breast
SNB-19 CNS = system: SNB-19 CNS
MDA-MB-435 = system: MDA-MB-435
HT29 colon = system: HT29 colon
SK-OV-3 ovarian = system: SK-OV-3 ovarian
KM12 colon = system: KM12 colon
MALME-3M melanoma = system: MALME-3M melanoma
U251 CNS = system: U251 CNS
HS 578T breast = system: HS 578T breast
HOP-92 NSCLC = system: HOP-92 NSCLC
HOP-62 NSCLC = system: HOP-62 NSCLC
ACHN renal = system: ACHN renal
HCC-2998 colon = system: HCC-2998 colon
SK-MEL-5 melanoma = system: SK-MEL-5 melanoma
A498 renal = system: A498 renal
NCI-H522 lung = system: NCI-H522 lung
SN12C renal = system: SN12C renal
K-562 leukemia = system: K-562 leukemia
DU-145 prostate = system: DU-145 prostate
OVCAR-8 ovarian = system: OVCAR-8 ovarian
UO-31 renal = system: UO-31 renal
HCT-116 colon = system: HCT-116 colon
SF-539 CNS = system: SF-539 CNS
NCI-H23 lung = system: NCI-H23 lung
RPMI-8226 leukemia = system: RPMI-8226 leukemia
MDA-MB-468 breast = system: MDA-MB-468 breast
UACC-62 melanoma = system: UACC-62 melanoma
CAKI-1 renal = system: CAKI-1 renal
HCT-15 colon = system: HCT-15 colon
SW-620 colon = system: SW-620 colon
CCRF-CEM leukemia = system: CCRF-CEM leukemia
PC-3 prostate = system: PC-3 prostate
SK-MEL-28 melanoma = system: SK-MEL-28 melanoma
MDA-MB-231 breast = system: MDA-MB-231 breast
786-0 renal = system: 786-0 renal
HL-60(TB) leukemia = system: HL-60(TB) leukemia
EKVX NSCLC = system: EKVX NSCLC
RXF 393 renal = system: RXF 393 renal
MOLT-4 leukemia = system: MOLT-4 leukemia
T-47D breast = system: T-47D breast

With `Cc1ccc(NC(=O)[C@]23CCC(C)(C)CC2C2=CCC4[C@@]5(C)C[C@@H](O)[C@H](O)[C@@](C)(CO)C5CC[C@@]4(C)[C@]2(C)CC3)cc1` (some centres undefined) the GI50 (NCI-H226 lung) was 11 µM, the TGI (NCI-H226 lung) was 23.8 µM and the GI50 (LOX IMVI melanoma) was 5.27 µM. The TGI (LOX IMVI melanoma) was 19.1 µM, the GI50 (TK-10 renal) was 16.3 µM and the TGI (TK-10 renal) was 32 µM. For the same molecule, the GI50 (NCI-H460 lung) was 10.5 µM, the TGI (NCI-H460 lung) was 23.1 µM and the GI50 (SF-268 CNS) was 10.2 µM. It also gave a TGI (SF-268 CNS) of 32.2 µM, a GI50 (IGROV1 ovarian) of 11.1 µM and a TGI (IGROV1 ovarian) of 23.8 µM. It also gave a GI50 (SNB-75 CNS) of 1880 nM, a TGI (SNB-75 CNS) of 31.4 µM and a GI50 (M14 melanoma) of 12.4 µM. For the same molecule, the TGI (M14 melanoma) was 25.2 µM, the GI50 (BT-549 breast) was 12.4 µM and the TGI (BT-549 breast) was 25.4 µM. For the same molecule, the GI50 (OVCAR-3 ovarian) was 13.5 µM, the TGI (OVCAR-3 ovarian) was 27.3 µM and the GI50 (SF-295 CNS) was 8.28 µM. For the same molecule, the TGI (SF-295 CNS) was 21.4 µM, the GI50 (UACC-257 melanoma) was 12.9 µM and the TGI (UACC-257 melanoma) was 27.5 µM. The GI50 (SR leukemia) was 5.58 µM, the TGI (SR leukemia) was greater than 100 µM and the GI50 (OVCAR-5 ovarian) was 12.8 µM. It also gave a TGI (OVCAR-5 ovarian) of 25.7 µM, a GI50 (A549 NSCLC) of 12.9 µM and a TGI (A549 NSCLC) greater than 100 µM. The GI50 (OVCAR-4 ovarian) was 7.81 µM, the TGI (OVCAR-4 ovarian) was 23.3 µM and the GI50 (COLO 205 colon) was 12.1 µM. For the same molecule, the TGI (COLO 205 colon) was 27.5 µM, the GI50 (MCF7 breast) was 4.12 µM and the TGI (MCF7 breast) was 15.5 µM. The GI50 (SNB-19 CNS) was 16.5 µM, the TGI (SNB-19 CNS) was 43.4 µM and the GI50 (MDA-MB-435) was 11.5 µM. For the same molecule, the TGI (MDA-MB-435) was 23.7 µM, the GI50 (HT29 colon) was 7.44 µM and the TGI (HT29 colon) was 20.1 µM. The GI50 (SK-OV-3 ovarian) was 13.9 µM, the TGI (SK-OV-3 ovarian) was 34 µM and the GI50 (KM12 colon) was 12.8 µM. The TGI (KM12 colon) was 28.2 µM, the GI50 (MALME-3M melanoma) was 12.1 µM and the TGI (MALME-3M melanoma) was 25.1 µM. It also gave a GI50 (U251 CNS) of 12.8 µM, a TGI (U251 CNS) of 25.5 µM and a GI50 (HS 578T breast) of 12.4 µM. For the same molecule, the TGI (HS 578T breast) was 48.6 µM, the GI50 (HOP-92 NSCLC) was 8.43 µM and the TGI (HOP-92 NSCLC) was 23.1 µM. It also gave a GI50 (HOP-62 NSCLC) of 14.3 µM, a TGI (HOP-62 NSCLC) of 29.1 µM and a GI50 (ACHN renal) of 10.4 µM. The TGI (ACHN renal) was 22.1 µM, the GI50 (HCC-2998 colon) was 6.91 µM and the TGI (HCC-2998 colon) was 21 µM. The GI50 (SK-MEL-5 melanoma) was 6.45 µM, the TGI (SK-MEL-5 melanoma) was 19.3 µM and the GI50 (A498 renal) was 14.1 µM. The TGI (A498 renal) was 27.4 µM, the GI50 (NCI-H522 lung) was 12.9 µM and the TGI (NCI-H522 lung) was 26.6 µM. It also gave a GI50 (SN12C renal) of 10.9 µM, a TGI (SN12C renal) of 23.1 µM and a GI50 (K-562 leukemia) of 12.1 µM. The TGI (K-562 leukemia) was 87.6 µM, the GI50 (DU-145 prostate) was 15.2 µM and the TGI (DU-145 prostate) was 32.6 µM. The GI50 (OVCAR-8 ovarian) was 14.2 µM, the TGI (OVCAR-8 ovarian) was 35.5 µM and the GI50 (UO-31 renal) was 3.54 µM. For the same molecule, the TGI (UO-31 renal) was 17 µM, the GI50 (HCT-116 colon) was 7.24 µM and the TGI (HCT-116 colon) was 20 µM. The GI50 (SF-539 CNS) was 12.7 µM, the TGI (SF-539 CNS) was 25.6 µM and the GI50 (NCI-H23 lung) was 12.7 µM. For the same molecule, the TGI (NCI-H23 lung) was 26.8 µM, the GI50 (RPMI-8226 leukemia) was 4.79 µM and the TGI (RPMI-8226 leukemia) was 25.8 µM. The GI50 (MDA-MB-468 breast) was 4.52 µM, the TGI (MDA-MB-468 breast) was 18.1 µM and the GI50 (UACC-62 melanoma) was 6.8 µM. The TGI (UACC-62 melanoma) was 20.6 µM, the GI50 (CAKI-1 renal) was 5.1 µM and the TGI (CAKI-1 renal) was 20.4 µM. The GI50 (HCT-15 colon) was 6.9 µM, the TGI (HCT-15 colon) was 19.9 µM and the GI50 (SW-620 colon) was 12.5 µM. For the same molecule, the TGI (SW-620 colon) was 27.5 µM, the GI50 (CCRF-CEM leukemia) was 11.1 µM and the TGI (CCRF-CEM leukemia) was 38.9 µM. It also gave a GI50 (PC-3 prostate) of 5.46 µM, a TGI (PC-3 prostate) of 21.5 µM and a GI50 (SK-MEL-28 melanoma) of 13 µM. The TGI (SK-MEL-28 melanoma) was 26 µM, the GI50 (MDA-MB-231 breast) was 12.2 µM and the TGI (MDA-MB-231 breast) was 26.1 µM. For the same molecule, the GI50 (786-0 renal) was 12.8 µM, the TGI (786-0 renal) was 26.4 µM and the GI50 (HL-60(TB) leukemia) was 5.44 µM. The TGI (HL-60(TB) leukemia) was 36.5 µM, the GI50 (EKVX NSCLC) was 9.25 µM and the TGI (EKVX NSCLC) was 23.9 µM. The GI50 (RXF 393 renal) was 2900 nM, the TGI (RXF 393 renal) was 11.6 µM and the GI50 (MOLT-4 leukemia) was 6.88 µM. The TGI (MOLT-4 leukemia) was 50.7 µM, the GI50 (T-47D breast) was 6.94 µM and the TGI (T-47D breast) was 20.6 µM.

Source: PubChem BioAssay (NCI)
